Counter-ions that a name gives are not always drawn. Like-named read-outs stand apart in the source and are kept apart here.
Columns and labels:
[1] = target: T1, Human PDE10A enzyme (Homo sapiens, UniProt Q9Y233); test: PDE enzyme inhibition, SPA (Scintillation Proximity Assay); type: biochemical; conditions: for inhibition at 1 µM: compound at 1 μM, read-out: Percent inhibition (1 μM); for IC50: human PDE10A, [3H]cGMP substrate; for inhibition at 0.1 µM: read-out: Percent inhibition (0.1 μM)
T1 construct: Human PDE10A enzyme was generated from Sf9 or COS-7 cells transfected with the full-length gene; His-tag; made in house; host or cells: Sf9 or COS-7 cells
T1 sequence (Q9Y233 267-1055): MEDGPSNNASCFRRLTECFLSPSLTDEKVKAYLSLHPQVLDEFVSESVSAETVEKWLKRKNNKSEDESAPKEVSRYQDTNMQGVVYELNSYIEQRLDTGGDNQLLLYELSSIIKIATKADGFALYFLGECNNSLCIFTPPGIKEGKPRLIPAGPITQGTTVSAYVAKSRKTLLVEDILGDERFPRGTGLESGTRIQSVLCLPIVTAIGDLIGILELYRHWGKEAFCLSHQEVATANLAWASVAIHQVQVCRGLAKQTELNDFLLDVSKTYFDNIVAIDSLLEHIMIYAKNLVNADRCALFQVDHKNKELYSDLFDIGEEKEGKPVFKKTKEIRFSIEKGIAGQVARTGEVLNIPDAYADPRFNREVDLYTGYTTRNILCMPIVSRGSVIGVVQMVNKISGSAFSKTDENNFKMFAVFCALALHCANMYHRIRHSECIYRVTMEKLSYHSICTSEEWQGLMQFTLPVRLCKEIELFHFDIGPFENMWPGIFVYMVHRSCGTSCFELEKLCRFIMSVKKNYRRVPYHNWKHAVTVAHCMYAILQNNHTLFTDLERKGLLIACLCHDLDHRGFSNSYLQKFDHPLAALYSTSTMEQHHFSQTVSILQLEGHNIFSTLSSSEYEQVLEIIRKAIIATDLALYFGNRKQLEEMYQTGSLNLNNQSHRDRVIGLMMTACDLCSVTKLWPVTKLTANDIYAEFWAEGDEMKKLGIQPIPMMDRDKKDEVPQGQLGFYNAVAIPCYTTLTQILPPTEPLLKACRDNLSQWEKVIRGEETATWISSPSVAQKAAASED
Procedure: Human PDE10A enzyme was generated from Sf9 or COS-7 cells transfected with the full-length gene. Cloned enzyme was extracted from homogenized cell pellets. The extracted enzyme from Sf9 cells was partially purified using His-tag affinity column. The enzyme was stored at −70° C. until use. PDE activity was measured using a SPA (Scintillation Proximity Assay) (GE Healthcare). To evaluate the inhibitory activity, 10 μL of serial diluted compounds were incubated with 20 μL of PDE enzyme in assay buffer (50 mM HEPES-NaOH, 8.3 mM MgCl2, 1.7 mM EGTA, 0.1% BSA (pH 7.4)) for 30 min. at room temperature. Final concentration of DMSO in the assay was 1 percent as compounds were tested in duplicate in 96-well half-area plates (Corning). To start the reaction, 10 μL of substrate [3H] cGMP (25 or 50 nM; enclosed in SPA kits from GE Healthcare or purchased from PerkinElmer, respectively) was added for a final assay volume of 40 μL. After 60 min incubation at room temperature, yttrium SPA beads containing Zinc sulphate were added (20 μL at 6 mg/mL) to terminate the PDE reaction. After being settled for 60 min., assay plates were counted in a scintillation counter (PerkinElmer) to allow calculation of inhibition rate and IC50. Inhibition rate was calculated on the basis of 0% control wells with DMSO and 100% control wells without enzyme.

Structure (SMILES)	inhibition at 0.1 µM ([1]; Table 2, compound at 0.1 μM) [%]	IC50 ([1]; Table 2) [nM]	also measured
COc1cn(-c2ccc(OS(=O)(=O)C(F)(F)F)cc2F)nc(-c2ccnn2-c2ccccc2)c1=O (as salt: methanesulfonate) [Example 93, 3-Fluoro-4-[5-methoxy-4-oxo-3-(1-phenyl-1H-pyrazol-5-yl)pyridazin-1(4H)-yl]phenyl trifluoromethanesulfonate]			melting point: 108 to 110 °C
N#Cc1ccc(-n2ccc(=O)c(-c3ccnn3-c3ccccc3)n2)cc1 [Example 46, 4-[4-Oxo-3-(1-phenyl-1H-pyrazol-5-yl)pyridazin-1(4H)-yl]benzonitrile]			inhibition at 1 µM ([1]; Table 1): 97%; IC50 ([1]; Table 1): 10 to 200 nM
O=c1ccn(-c2ccc(S(=O)(=O)N3CCOCC3)cc2)nc1-c1ccnn1-c1ccccc1 [Example 48, 1-[4-(Morpholin-4-ylsulfonyl)phenyl]-3-(1-phenyl-1H-pyrazol-5-yl)pyridazin-4(1H)-one]			inhibition at 1 µM ([1]; Table 1): 100%; IC50 ([1]; Table 1): < 10 nM
NC(=O)c1ccc(-n2ccc(=O)c(-c3ccnn3-c3ccccc3)n2)cc1 [Example 49, 4-[4-Oxo-3-(1-phenyl-1H-pyrazol-5-yl)pyridazin-1(4H)-yl]benzamide]			inhibition at 1 µM ([1]; Table 1): 98%; IC50 ([1]; Table 1): < 10 nM
CCOc1cn(-c2cccc(C(F)(F)F)c2)nc(-c2ccnn2-c2ccccc2)c1=O [Example 59, 5-Ethoxy-3-(1-phenyl-1H-pyrazol-5-yl)-1-[3-(trifluoromethyl)phenyl]pyridazin-4(1H)-one]			inhibition at 1 µM ([1]; Table 1): 96%; IC50 ([1]; Table 1): 10 to 200 nM
COc1cn(-c2ccc(N3CC(F)(F)C3)cc2F)nc(-c2ccnn2-c2ccccc2)c1=O [Example 102, 1-[4-(3,3-Difluoroazetidin-1-yl)-2-fluorophenyl]-5-methoxy-3-(1-phenyl-1H-pyrazol-5-yl)pyridazin-4(1H)-one]	103	< 10	
COc1cn(-c2ccc(-n3cccn3)cc2F)nc(-c2ccnn2-c2ccccc2)c1=O [Example 120, 1-[2-Fluoro-4-(1H-pyrazol-1-yl)phenyl]-5-methoxy-3-(1-phenyl-1H-pyrazol-5-yl)pyridazin-4(1H)-one]			inhibition at 0.1 µM [1]: 100%
COc1cn(-c2ccc(-n3c(=O)ccn3C(F)F)cc2F)nc(-c2ccnn2-c2ccccc2)c1=O [Example 124, 1-{4-[2-(Difluoromethyl)-5-oxo-2,5-dihydro-1H-pyrazol-1-yl]-2-fluorophenyl}-5-methoxy-3-(1-phenyl-1H-pyrazol-5-yl)pyridazin-4(1H)-one]	97	< 10	
COc1cn(-c2ccc(-n3cccn3)cc2F)nc(-c2ccnn2-c2ccccc2F)c1=O [Example 163, 3-[1-(2-Fluorophenyl)-1H-pyrazol-5-yl]-1-[2-fluoro-4-(1H-pyrazol-1-yl)phenyl]-5-methoxypyridazin-4(1H)-one]	101	< 10	
COc1cn(-c2ccc(-n3cccn3)cc2F)nc(-c2ccnn2-c2cccc(Cl)c2)c1=O [Example 164, 3-[1-(3-Chlorophenyl)-1H-pyrazol-5-yl]-1-[2-fluoro-4-(1H-pyrazol-1-yl)phenyl]-5-methoxypyridazin-4(1H)-one]	101	< 10	
COc1cn(-c2ccc(N3CCN(C)C3=O)cc2F)nc(-c2ccnn2-c2ccccc2)c1=O [Example 178, 1-[2-fluoro-4-(3-methyl-2-oxoimidazolidin-1-yl)phenyl]-5-methoxy-3-(1-phenyl-1H-pyrazol-5-yl)pyridazin-4(1H)-one]	92	< 10	
COc1cn(-c2ccc(N3CC=CC3)cc2F)nc(-c2ccnn2-c2ccccc2)c1=O [Example 179, 1-[4-(2,5-Dihydro-1H-pyrrol-1-yl)-2-fluorophenyl]-5-methoxy-3-(1-phenyl-1H-pyrazol-5-yl)pyridazin-4(1H)-one]	96	< 10	
COc1cn(-c2ccc(-n3cc(Cl)cn3)cc2F)nc(-c2ccnn2-c2ccccc2)c1=O [Example 180, 1-[4-(4-Chloro-1H-pyrazol-1-yl)-2-fluorophenyl]-5-methoxy-3-(1-phenyl-1H-pyrazol-5-yl)pyridazin-4(1H)-one]	96	< 10	
COc1cn(-c2ccc(N3CCC(C)(O)CC3)cc2F)nc(-c2ccnn2-c2ccccc2)c1=O [Example 186, 1-[2-Fluoro-4-(4-hydroxy-4-methylpiperidin-1-yl)phenyl]-5-methoxy-3-(1-phenyl-1H-pyrazol-5-yl)pyridazin-4(1H)-one]	100	< 10	
COc1cn(-c2ccc(N3CC(C)(C)CC3=O)cc2F)nc(-c2ccnn2-c2ccccc2)c1=O [Example 189, 1-[4-(4,4-Dimethyl-2-oxopyrrolidin-1-yl)-2-fluorophenyl]-5-methoxy-3-(1-phenyl-1H-pyrazol-5-yl)pyridazin-4(1H)-one]	100	< 10	
COc1cn(-c2ccc(N3CC(C)(C)OC3=O)cc2F)nc(-c2ccnn2-c2ccccc2)c1=O [Example 190, 1-[4-(5,5-Dimethyl-2-oxo-1,3-oxazolidin-3-yl)-2-fluorophenyl]-5-methoxy-3-(1-phenyl-1H-pyrazol-5-yl)pyridazin-4(1H)-one]	100	< 10	
COc1cc(-n2cccn2)ccc1-n1cc(OC)c(=O)c(-c2ccnn2-c2ccccc2)n1 [Example 192, 5-Methoxy-1-[2-methoxy-4-(1H-pyrazol-1-yl)phenyl]-3-(1-phenyl-1H-pyrazol-5-yl)pyridazin-4(1H)-one]	101	< 10	

Now from value to compound, other results behind:

inhibition at 0.1 µM ([1]; Table 2, compound at 0.1 μM) [%]	IC50 ([1]; Table 2) [nM]	Structure (SMILES)	also measured
99	< 10	COc1cn(-c2ccc(N3CCC(F)(F)C3)cc2F)nc(-c2ccnn2-c2ccccc2)c1=O [Example 103, 1-[4-(3,3-Difluoropyrrolidin-1-yl)-2-fluorophenyl]-5-methoxy-3-(1-phenyl-1H-pyrazol-5-yl)pyridazin-4(1H)-one]	
99	< 10	COc1cn(-c2ccc(N3CC(F)(F)C(F)(F)C3)cc2F)nc(-c2ccnn2-c2ccccc2)c1=O [Example 104, 1-[2-Fluoro-4-(3,3,4,4-tetrafluoropyrrolidin-1-yl)phenyl]-5-methoxy-3-(1-phenyl-1H-pyrazol-5-yl)pyridazin-4(1H)-one]	
100	< 10	COc1cn(-c2ccc(N3CCC(F)(F)CC3)cc2F)nc(-c2ccnn2-c2ccccc2)c1=O [Example 106, 1-[4-(4,4-Difluoropiperidin-1-yl)-2-fluorophenyl]-5-methoxy-3-(1-phenyl-1H-pyrazol-5-yl)pyridazin-4(1H)-one]	
103	< 10	COc1cn(-c2ccc(N3CCCC3=O)cc2F)nc(-c2ccnn2-c2ccccc2)c1=O [Example 108, 1-[2-Fluoro-4-(2-oxopyrrolidin-1-yl)phenyl]-5-methoxy-3-(1-phenyl-1H-pyrazol-5-yl)pyridazin-4(1H)-one]	
99	< 10	COc1cn(-c2ccc(N3CCOC3=O)cc2F)nc(-c2ccnn2-c2ccccc2)c1=O [Example 109, 1-[2-Fluoro-4-(2-oxo-1,3-oxazolidin-3-yl)phenyl]-5-methoxy-3-(1-phenyl-1H-pyrazol-5-yl)pyridazin-4(1H)-one]	
97	< 10	COc1cn(-c2ccc(-n3ccnc3)cc2F)nc(-c2ccnn2-c2ccccc2)c1=O [Example 111, 1-[2-Fluoro-4-(1H-imidazol-1-yl)phenyl]-5-methoxy-3-(1-phenyl-1H-pyrazol-5-yl)pyridazin-4(1H)-one]	
99	< 10	COc1cn(-c2cccc(-c3cnn(C)c3)c2F)nc(-c2ccnn2-c2ccccc2)c1=O [Example 113, 1-[2-Fluoro-3-(1-methyl-1H-pyrazol-4-yl)phenyl]-5-methoxy-3-(1-phenyl-1H-pyrazol-5-yl)pyridazin-4(1H)-one]	
102	< 10	COc1cn(-c2ccc(-c3cnn(C)c3)cc2F)nc(-c2ccnn2-c2ccccc2)c1=O [Example 114, 1-[2-Fluoro-4-(1-methyl-1H-pyrazol-4-yl)phenyl]-5-methoxy-3-(1-phenyl-1H-pyrazol-5-yl)pyridazin-4(1H)-one]	
99	< 10	COc1cn(-c2ccc(-c3cnn(C(F)F)c3)cc2F)nc(-c2ccnn2-c2ccccc2)c1=O [Example 116, 1-{4-[1-(Difluoromethyl)-1H-pyrazol-4-yl]-2-fluorophenyl}-5-methoxy-3-(1-phenyl-1H-pyrazol-5-yl)pyridazin-4(1H)-one]	
100	< 10	COc1cn(-c2ccc(-n3cc(F)c(F)c3)cc2F)nc(-c2ccnn2-c2ccccc2)c1=O [Example 119, 1-[4-(3,4-Difluoro-1H-pyrrol-1-yl)-2-fluorophenyl]-5-methoxy-3-(1-phenyl-1H-pyrazol-5-yl)pyridazin-4(1H)-one]	
99	< 10	COc1cn(-c2ccc(-n3nccc3OC(F)F)cc2F)nc(-c2ccnn2-c2ccccc2)c1=O [Example 123, 1-{4-[5-(Difluoromethoxy)-1H-pyrazol-1-yl]-2-fluorophenyl}-5-methoxy-3-(1-phenyl-1H-pyrazol-5-yl)pyridazin-4(1H)-one]	

Source: patent US8513251B2, “Pyridazinone compounds” (Takeda Pharmaceutical Company Limited, priority 2009, dated 2013)
